Measurements published in patent publication US20220023436A1, “COMBINATION OF ANTIBODY-DRUG CONJUGATE WITH PARP INHIBITOR” (DAIICHI SANKYO COMPANY, LIMITED, priority 2018, published 2022).
Where two headings read alike, the source gives them in different places.

Columns and labels:
[1] = test system: Human breast cancer cell line KPL-4; assay type: cell-based; details: KPL-4 cell line
Description: (§1) For combination effects, differences between estimates of additive effects from the Loewe model (Greco W R. et al., Pharmacol. Rev. 1995 June; 47 (2): 331-85) and cell growth inhibition rates (%) subjected to sigmoid fitting were converted to matrices, and Synergy Scores were calculated from the matrix elements using a method described in the reference (Lehar J. et al., Nat Biotechnol. 2009 July; 27 (7):659-66). Besides, Synergy Score=0 indicates an additive effect; Synergy Score>0 indicates a synergistic effect; and Synergy Score<0 indicates an antagonistic effect.
Human breast cancer cell line KPL-4, which was obtained from Dr. Junichi Kurebayashi in Kawasaki Medical School [British Journal of Cancer, (1999) 79 (5/6). 707-717], was used for evaluation. […] Then, KPL-4 cells suspended at 1×10^4 cells/mL with RPMI1640 Medium containing 10% fetal bovine serum were seeded at 2.5 μL/well, and cultured at 37° C. under 5%CO2 for 6 days. After culturing, a solution of CellTiter-Glo 2.0 Assay diluted with an equivalent volume of Glo Lysis buffer, 1× was added at 2 μL/well and subjected to incubation at room temperature for an hour, followed by measurement of luminescence intensity of each well.

[2] = test system: Human pancreatic cancer cell line BxPC-3; assay type: cell-based; details: BxPC-3 cell line
Description: as §1
(§2) Human pancreatic cancer cell line BxPC-3, which was obtained from ATCC, was used for evaluation. […] Then, BxPC-3 cells suspended at 4×10^4 cells/mL with RPMI1640 Medium containing 10% fetal bovine serum were seeded at 2.5 μL/well, and cultured at 37° C. under 5%CO2 for 6 days. After culturing, a solution of CellTiter-Glo 2.0 Assay (Promega) diluted with an equivalent volume of Glo Lysis buffer, 1× (Promega) was added at 2 μL/well and subjected to incubation at room temperature for an hour, followed by measurement of luminescence intensity of each well.

[3] = test system: Human gastric cancer cell line NCI-N87; assay type: cell-based
Description: Human gastric cancer cell line NCI-N87, which was obtained from ATCC (American Type Culture Collection), was used for evaluation. […] Then, NCI-N87 cells suspended at 4×10^4 cells/mL with RPMI1640 Medium containing 10% fetal bovine serum were seeded at 2.5 μL/well, and cultured at 37° C. under 5%CO2 for 6 days.
After culturing, a solution of CellTiter-Glo 2.0 Assay (Promega) diluted with an equivalent volume of Glo Lysis buffer, 1× (Promega) was added at 2 μL/well and subjected to incubation at room temperature for an hour, followed by measurement of luminescence intensity of each well.
Cell growth inhibition rate […] in each condition was calculated using the following formula: […]
T: average luminescence intensity of wells added with each sample
B: average luminescence intensity of wells added with DMSO and medium
C: average luminescence intensity of wells added with DMSO and cells
Furthermore, sigmoid fitting was performed for the concentration-dependent transition of cell growth inhibition rate in each combination condition using Genedata Screener Analyzer Version 14 (Genedata, hereinafter referred to as Screener).
as §1

[4] = test system: Human lung cancer cell line EBC-1; assay type: cell-based; details: EBC-1 cell line
Description: as §1
Human lung cancer cell line EBC-1, which was obtained from Health Science Research Resources Bank (current Japanese Collection of Research Bioresources [JCRB] Cell Bank), was used for evaluation. […] Then, EBC-1 cells suspended at 2×10^4 cells/mL with RPMI1640 Medium containing 10% fetal bovine serum were seeded at 2.5 μL/well, and cultured at 37° C. under 5%CO2 for 6 days. After culturing, a solution of CellTiter-Glo 2.0 Assay diluted with an equivalent volume of Glo Lysis buffer, 1× was added at 2 μL/well and subjected to incubation at room temperature for an hour, followed by measurement of luminescence intensity of each well.

[5] = test system: Human breast cancer cell line HCC70; assay type: cell-based
Description: as §1
as §2, with “breast” for “pancreatic”, “HCC70,” for “BxPC-3,”, “HCC70” for “BxPC-3”, “Assay” for “Assay (Promega)”, “1×” for “1× (Promega)”

[6] = test system: Human ovarian cancer cell line OV-90; test: Antitumor study (9), subcutaneously transplanted OV-90 cells, CDH6-ADC (1); details: OV-90 model, Day 17 after administration, single administration group; cachexia-like weight loss when tumor size exceeds 1500 mm^3
Description: (§3) Measurement and calculation formula: In all studies, the major axis and minor axis of tumors were measured twice a week with an electronic digital caliper (CD15-CX, Mitutoyo Corp.), and the tumor volume (mm^3) was calculated. The calculation formula is as shown below.
(§4) Tumor growth inhibition (%)=100×(1−T/C) • T: Average tumor volume of mice of test substance administration group • C: Average tumor volume of mice of control group
Talazoparib was dissolved with DMSO, diluted with 0.5% hydroxypropyl methylcellulose, and orally administered in a fluid volume of 10 mL/kg. […] Veliparib was dissolved with a 0.05M CH COON solution and orally administered in a fluid volume of 10 mL/kg.
Human ovarian cancer cell line OV-90, which was purchased from ATCC, was suspended into physiological saline, subcutaneously transplanted at 1×10^7 cells into the right side of female nude mice, and the mice were randomly grouped 14 days after the transplantation (Day 0). […] Single administration groups of each drug, a combined administration group, and a solvent administration group as a control group were set up.

[7] = test system: Human breast cancer cell line KPL-4; assay type: in vivo, BALB/c nude mice
Description: The calculation formula is as shown below.
Human breast cancer cell line KPL-4 [British Journal of Cancer, (1999) 79 (5/6).
Incidentally, in the following evaluation examples relating to antitumor studies, unless otherwise described, the studies are performed by the procedure used in this evaluation example.

[8] = test system: Human breast cancer cell line MX-1; test: Antitumor study (6), subcutaneously transplanted MX-1 cells, HER3-ADC (1); assay type: in vivo; details: MX-1 s.c. in nude mice; HER3-ADC (1) 3 mg/kg iv Day 0, 7, 15; olaparib 100 mg/kg po, talazoparib 0.4 mg/kg po once a day, five times a week, two weeks
Description: (§5) Talazoparib was dissolved with dimethyl acetamide, diluted with 5% Kolliphor HS15/Dulbecco's phosphate-buffered saline, and orally administered in a fluid volume of 10 mL/kg.
(§6) In Examples 16 and 17, HER3-ADC (1) was diluted with ABS buffer (10 mM acetate buffer (pH 5.5), 5% sorbitol), and intravenously administered in a fluid volume of 10 mL/kg to the tail vein.
Human breast cancer cell line MX-1 was suspended into 50% Matrigel matrix, subcutaneously transplanted at 5×10^6 cells into the right side of female nude mice, and the mice were randomly grouped 13 days after the transplantation (Day 0). The HER3-ADC (1) was intravenously administered to the tail vein at a dose of 3 mg/kg on Day 0, Day 7 and Day 15. […] Single administration groups of each drug, a combined administration group, and a solvent administration group as a control group were set up.

[9] = test system: Human breast cancer cell line MX-1; assay type: in vivo; details: MX-1 s.c. in nude mice; HER2-ADC (1) 3 mg/kg iv Day 0; olaparib 100 mg/kg po, talazoparib 0.4 mg/kg po once a day, five times a week, two weeks
Description: as §5
Human breast cancer cell line MX-1, which was purchased from CLS (Cell Lines Service), was suspended into 50% Matrigel matrix, subcutaneously transplanted at 5×10^6 cells into the right side of female nude mice, and the mice were randomly grouped 13 days after the transplantation (Day 0). The HER2-ADC (1) was intravenously administered to the tail vein at a dose of 3 mg/kg on Day 0. […] Single administration groups of each drug, a combined administration group, and a solvent administration group as a control group were set up.

[10] = test system: Human breast cancer cell line HCC70; test: Antitumor study (7), subcutaneously transplanted HCC70 cells, HER3-ADC (1); assay type: in vivo; details: HCC70 s.c. in nude mice; HER3-ADC (1) 10 mg/kg iv Day 0, 7, 14; olaparib 100 mg/kg po, talazoparib 0.4 mg/kg po once a day, five times a week, two weeks
Description: as §5, §6
Human breast cancer cell line HCC70 was suspended into physiological saline, subcutaneously transplanted at 1×10^7 cells into the right side of female nude mice, and the mice were randomly grouped 13 days after the transplantation (Day 0). The HER3-ADC (1) was intravenously administered to the tail vein at a dose of 10 mg/kg on Day 0, Day 7 and Day 14. […] Single administration groups of each drug, a combined administration group, and a solvent administration group as a control group were set up.

[11] = test system: Human ovarian cancer cell line SK-OV-3; assay type: in vivo, BALB/c nude mice; details: SK-OV-3 s.c. in nude mice; HER2-ADC (1) 3 mg/kg iv Day 0 and Day 14; olaparib 60 mg/kg, talazoparib 0.4 mg/kg once a day, five times a week, three weeks
Description: as §3
(§7) Tumor volume (mm^3)=1/2×Major axis (mm)×[Minor axis (mm)]^2
(§8) The HER2-ADC (1) was diluted with ABS buffer (10 mM acetate buffer [pH 5.5], 5% sorbitol), and intravenously administered in a fluid volume of 10 mL/kg to the tail vein. […] Talazoparib was dissolved with DMSO, diluted with 0.5% hydroxypropyl methylcellulose, and orally administered in a fluid volume of 10 mL/kg.
Human ovarian cancer cell line SK-OV-3 cells, which were purchased from ATCC (American Type Culture Collection), were maintained by nude mouse transplantation, subcutaneously transplanted in the form of a tumor mass of solid tumor (3×3×3 mm) into the right side of female nude mice, and the mice were randomly grouped 19 days after the transplantation (Day 0). HER2-ADC (1) was intravenously administered to the tail vein at a dose of 3 mg/kg on Day 0 and Day 14. […] Single administration groups of each drug, a combined administration group, and a solvent administration group as a control group were set up.

[12] = test system: Human gastric cancer cell line NCI-N87; assay type: in vivo, BALB/c nude mice; details: NCI-N87 s.c. in nude mice; HER2-ADC (1) 1 mg/kg iv Day 0; olaparib 50 mg/kg, talazoparib 0.4 mg/kg once a day, five times a week, two weeks
Description: as §3, §7
Talazoparib was dissolved with DMSO, diluted with 0.5% hydroxypropyl methylcellulose, and orally administered in a fluid volume of 10 mL/kg.
Human gastric cancer cell line NCI-N87, which was purchased from ATCC (American Type Culture Collection), was suspended into physiological saline, subcutaneously transplanted at 1×10^7 cells into the right side of female nude mice, and the mice were randomly grouped 6 days after the transplantation (Day 0). […] Single administration groups of each drug, a combined administration group, and a solvent administration group as a control group were set up.

[13] = test system: Human breast cancer cell line HCC1806; details: mouse, in vivo
Description: as §3, §7
Tumor growth inhibition (TGI) was calculated in accordance with the following calculation formula.
as §4
Rucaparib (camsylate) was dissolved with DMSO, diluted with physiological saline, and orally administered in a fluid volume of 10 mL/kg. Talazoparib was dissolved with DMSO, diluted with 10% N,N-Dimethylacetamide/5% Kolliphor HS 15/Dulbecco's Phosphate-Buffered Saline, and orally administered in a fluid volume of 10 mL/kg.
Human breast cancer cell line HCC1806, which was Purchased from ATCC, was suspended into physiological saline, subcutaneously transplanted at 1×10^6 cells into the right side of female nude mice, and the mice were randomly grouped 10 days after the transplantation (Day 0). […] Single administration groups of each drug, a combined administration group, and a solvent administration group as a control group were set up, and tumor growth inhibition (TGI) on Day 21 was calculated.

[14] = test system: Human breast cancer cell line JIMT-1; details: mouse, in vivo
Description: Measurement and calculation formula: In all studies, the major axis and minor axis of tumors were measured twice a week with an electronic digital caliper (CD15-CX, Mitutoyo Corp.), and the tumor volume (mm^3) was calculated.
as §7, §8
Human breast cancer cell line JIMT-1, which was purchased from DSMZ (Deutsche Sammlung von Mikroorganismen and Zellkulturen GmbH), was suspended into physiological saline, subcutaneously transplanted at 5×10^6 cells into the right side of female nude mice, and the mice were randomly grouped 10 days after the transplantation (Day 0). The HER2-ADC (1) was intravenously administered to the tail vein at a dose of 10 mg/kg on Day 0. […] Single administration groups of each drug, a combined administration group, and a solvent administration group as a control group were set up.

[15] = 6 days, rucaparib (phosphate), >0 synergistic
[16] = all combinations with olaparib, talazoparib, rucaparib, niraparib
[17] = KPL-4 s.c. in nude mice, last day of study, HER2-ADC (1) 7.5 mg/kg iv Day 0, olaparib 50 mg/kg ip, niraparib 50 mg/kg po, talazoparib 0.4 mg/kg po, rucaparib (camsylate) 150 mg/kg po, once a day, five times a week, two weeks

## CC[C@@]1(O)C(=O)OCc2c1cc1n(c2=O)Cc2c-1nc1cc(F)c(C)c3c1c2[C@@H](NC(=O)CO)CC3 [Compound (1)]
[1]; 6 days, >0 synergistic
  Synergy Score of combination with Niraparib: 3.68
  Synergy Score of combination with Olaparib: 3.97
  Synergy Score of combination with Talazoparib: 4.86
[1]; [15]
  Synergy Score of combination with Rucaparib: 4.97
[1]; [16]
  combination effect in cell growth inhibition study: synergistic effects
[2]; 6 days, >0 synergistic
  Synergy Score of combination with Niraparib: 1.85
  Synergy Score of combination with Olaparib: 1.56
  Synergy Score of combination with Talazoparib: 3.25
[2]; [15]
  Synergy Score of combination with Rucaparib: 2.15
[2]; [16]
  combination effect in cell growth inhibition study: synergistic effects
[3]; 6 days, >0 synergistic
  Synergy Score of combination with Niraparib: 1.23
  Synergy Score of combination with Talazoparib: 4.58
[3]; 6 days, >0 synergistic, 0 additive, <0 antagonistic
  Synergy Score of combination with Olaparib: 3.21
[3]; [15]
  Synergy Score of combination with Rucaparib: 1.93
[3]; [16]
  combination effect in cell growth inhibition study: synergistic effects
[4]; 6 days, >0 synergistic
  Synergy Score of combination with Niraparib: 3.17
  Synergy Score of combination with Olaparib: 3.39
  Synergy Score of combination with Talazoparib: 5.66
[4]; [15]
  Synergy Score of combination with Rucaparib: 4.41
[4]; [16]
  combination effect in cell growth inhibition study: synergistic effects
[5]; 6 days, >0 synergistic
  Synergy Score of combination with Niraparib: 1.61
  Synergy Score of combination with Olaparib: 1.98
  Synergy Score of combination with Talazoparib: 4.61
[5]; [15]
  Synergy Score of combination with Rucaparib: 2.48
[5]; [16]
  combination effect in cell growth inhibition study: synergistic effects

## NC(=O)c1cccc2cn(-c3ccc([C@@H]4CCCNC4)cc3)nc12 [niraparib]
[6]
  mice euthanized due to weight loss: 1 case out of 6 cases
[7]; mouse, in vivo
  tumor growth inhibition (TGI), single administration: 39%

## O=C(c1cc(Cc2n[nH]c(=O)c3ccccc23)ccc1F)N1CCN(C(=O)C2CC2)CC1 [olaparib]
[8]
  TGI, single administration: 23%
[9]
  TGI, single administration: 44%
[10]
  TGI, single administration: 18%
[7]; [17]
  tumor growth inhibition (TGI), single administration: 21%
[11]
  TGI, single administration: 15%
[12]
  TGI, single administration: 26%

## CNCc1ccc(-c2[nH]c3cc(F)cc4c3c2CCNC4=O)cc1 [rucaparib]
[6]
  mice euthanized due to weight loss: 1 case out of 6 cases
[7]; [17]
  tumor growth inhibition (TGI), single administration: 42%

## Cn1ncnc1[C@H]1c2n[nH]c(=O)c3cc(F)cc(c23)N[C@@H]1c1ccc(F)cc1 [talazoparib]
[8]
  TGI, single administration: 49%
[9]
  TGI, single administration: 47%
[10]
  TGI, single administration: 19%
[7]; [17]
  tumor growth inhibition (TGI), single administration: 31%
[11]
  TGI, single administration: 12%
[13]
  TGI, single administration: 27%
[14]
  TGI, single administration: 13%
[12]
  TGI, single administration: -2%
